Experimental data: patent US20160115540A1, “PRODRUGS AND DRUGS” (Biogen MA Inc., priority 2013, published 2016)
Structures can show the parent of a compound that is named as a salt.

System: kidney
Experiment: Transcriptional profiling on Affymetrix GeneChips, single dose, naïve mice: kidney
Format: in vivo, C57BL/6 mice
Conditions: for Number of differentially expressed genes identified: Kidney: Naïve, Single Dose, 100 mpk, vs Vehicle
Procedure: Treated mice were sacrificed at 2, 7, or 12 hours. Tissues (liver, spleen, kidney, jejunum, cortex, hippocampus, striatum and whole blood) were collected and analyzed by transcriptional profiling on mouse Affymetrix GeneChips.
Tissues (liver, spleen, kidney, jejunum, cortex, hippocampus, striatum and whole blood) were collected and analyzed by transcriptional profiling on mouse Affymetrix GeneChips.
Animals were exposed to CO2 and whole blood collected via cardiac puncture. Two 100 μl aliquots of whole blood were collected in 1.5 mL microcentrifuge tubes and snap frozen in liquid nitrogen. Peripheral (liver, spleen, kidney and jejunum) and CNS brain (cerebellum, hippocampus, striatum and cortex) tissues were harvested and snap frozen in liquid nitrogen, with special care taken to collect tissues of similar size and from the same location. All samples were stored at −80° C. until RNA extraction was conducted.
For RNA preparation, frozen tissues were placed in 2 mL RNAse-free 96-well blocks with 1.5 mL QIAzol Lysis Reagent (QIAgen) and a 3.2 mm stainless steel bead (BioSpec Products, Bartlesville, Okla.). Tissues were disrupted for four cycles of 45 seconds in a Mini-Beadbeater (Biospec Products). RNA was extracted in chloroform and the aqueous phase was mixed with an equal volume of 70% ethanol. Extracted RNA was applied to RNeasy 96 plates and purified by the spin method according to the manufacturer's protocol (RNeasy 96 Universal Tissue Protocol, QIAgen, Hilden Germany).
Automated sample amplifications and biotin labelings were carried out using the NuGEN Ovation RNA Amplification system V2 (Cat #3100), Ovation WB reagent (Cat #1300) and Encore Biotin module (Cat #4200) (NuGEN Technologies, Inc, San Carlos, Calif.) according to manufacturer's recommendations using an Arrayplex automated liquid handler (Beckman Coulter, Indianapolis, Ind.). Two micrograms of biotin labeled sscDNA probe were hybridized to Affymetrix GeneChip Affymetrix HT_MG-430_PM plate arrays with modified conditions as described in Allaire et al. Washing and staining of the hybridized arrays were completed as described in the GeneChip Expression analysis technical manual for HT plate arrays using the Genechip® Array Station (Affymetrix, Santa Clara, Calif.) with modifications as described in Allaire et al. The processed GeneChip® plate arrays were scanned using GeneTitan scanner (Affymetrix, Santa Clara, Calif.).
Affymetrix scans were subject to quality control (QC) measures. These tests included a visual inspection of the distribution of raw signal intensities and an assessment of RNA degradation, relative log expression (RLE), and normalized unsealed standard error (NUSE). All sample scans that passed these QC metrics were included in the analysis.
All CEL files were subjected to GC-content-based Robust Multi-array Average (GCRMA) normalization (version 2.20.0) (Irizarry R A, et al. Nucleic Acids Res 2003; 31:e15; Li C, et al. Genome Biol 2001; 2:[…]0032). Expression levels were log (base 2) transformed.
All calculations and analyses were carried out using R (version 2.11.1) and Bioconductor computational tools (Gentleman R. Springer Science+Business Media 2005).

COC(=O)/C=C/C(=O)O [MMF, monomethyl fumarate]
FC Hfe 1422645_PM_at (100MMF-vs-Veh, 12 h): 1.56
FC Ikbkg 1421209_PM_s_at (100MMF-vs-Veh, 12 h): 1.57
FC Mep1b 1418215_PM_at (100MMF-vs-Veh, 12 h): −1.55
FC Mthfd2 1419253_PM_at (100MMF-vs-Veh, 12 h): 1.65
FC Myo5a 1419754_PM_at (100MMF-vs-Veh, 12 h): −3.09
FC Nek6 1423596_PM_at (100MMF-vs-Veh, 12 h): 1.69
FC Pnkd 1418746_PM_at (100MMF-vs-Veh, 12 h): 1.51
FC Slc6a4 1417150_PM_at (100MMF-vs-Veh, 12 h): 1.58
FC Slc38a3 1418706_PM_at (100MMF-vs-Veh, 12 h): 1.81
FC Smcp 1418358_PM_at (100MMF-vs-Veh, 12 h): −2.49
FC Srxn1 (1419942_PM_at) (100MMF-vs-Veh, 12 h): 1.96
FC Tfrc 1422966_PM_a_at (100MMF-vs-Veh, 12 h): 1.51
FC Tiam2 1423186_PM_at (100MMF-vs-Veh, 12 h): 1.84
FC Txnrd1 1421529_PM_a_at (100MMF-vs-Veh, 12 h): 1.55
Number of genes, DMF Only / MMF Only (Kidney): 94
Asns (1451095_PM_at) differential expression (Kidney, 2 hr): 2.46
Cbr3 (1427912_PM_at) differential expression (Kidney, 2 hr): 2.96
Gdf15 (1418949_PM_at) differential expression (Kidney, 2 hr): 5.50
Maf (probe set 1437473_PM_at) differential expression (Kidney, 2 hr): −1.56
Mthfd2 (1419253_PM_at) differential expression (Kidney, 2 hr): 2.03
Number of differentially expressed genes identified: Kidney (2 h after last dosing): 274
Number of differentially expressed genes identified: Kidney (7 h after last dosing): 156
Number of differentially expressed genes identified: Kidney (12 h after last dosing): 151
Asns (1451095_PM_at) differential expression (kidney, 7 hr): 2.13
Cbr1 (probe set 1460196_PM_at) differential expression (kidney, 7 hr): 1.58
Cbr3 (1427912_PM_at) differential expression (kidney, 7 hr): 9.54
Cul9 (probe set 1439866_PM_at) differential expression (kidney, 7 hr): −1.52
Dbp (probe set 1418174_PM_at) differential expression (kidney, 7 hr): −1.73
Fam107a (probe set 1435918_PM_at) differential expression (kidney, 7 hr): −1.77
Frem2 (probe set 1457038_PM_at) differential expression (kidney, 7 hr): −1.66
Gdf15 (1418949_PM_at) differential expression (kidney, 7 hr): 1.98
Gpr135 (probe set 1441944_PM_s_at) differential expression (kidney, 7 hr): 1.66
Ido2 (probe set 1425778_PM_at) differential expression (kidney, 7 hr): −1.52
Il18 (probe set 1417932_PM_at) differential expression (kidney, 7 hr): −1.52
Kcnh1 (probe set 1435994_PM_at) differential expression (kidney, 7 hr): −1.61
Kif20b (probe set 1439695_PM_a_at) differential expression (kidney, 7 hr): −2.61
Mthfd2 (1419253_PM_at) differential expression (kidney, 7 hr): 1.89
Nmral1 (probe set 1430530_PM_s_at) differential expression (kidney, 7 hr): −1.52
Ppm1e (probe set 1434990_PM_at) differential expression (kidney, 7 hr): −1.53
Rab38 (probe set 1417700_PM_at) differential expression (kidney, 7 hr): −1.57
Slc48a1 (probe set 1450410_PM_a_at) differential expression (kidney, 7 hr): 1.58
Sphk2 (probe set 1426230_PM_at) differential expression (kidney, 7 hr): −1.54
Tmem86a (probe set 1428758_PM_at) differential expression (kidney, 7 hr): −1.56
Wdr90 (probe set 1426767_PM_at) differential expression (kidney, 7 hr): −1.58
Acot1 (probe set 1449065_PM_at) differential expression (kidney, 12 hr): 1.59
Acot1 /// Acot2 (probe set 1422997_PM_s_at) differential expression (kidney, 12 hr): 1.51
Acsm2 (probe set 1427224_PM_at) differential expression (kidney, 12 hr): −1.52
Aldh1a1 (probe set 1416468_PM_at) differential expression (kidney, 12 hr): 2.21
Arhgap26 (probe set 1440688_PM_at) differential expression (kidney, 12 hr): −1.57
Asns (1451095_PM_at) differential expression (kidney, 12 hr): 2.49
Atp11a (probe set 1421167_PM_at) differential expression (kidney, 12 hr): −1.62
B4galt5 (probe set 1433617_PM_s_at) differential expression (kidney, 12 hr): −1.51
C8a (probe set 1428012_PM_at) differential expression (kidney, 12 hr): −1.51
Cbr1 (probe set 1460196_PM_at) differential expression (kidney, 12 hr): 2.10
Cbr3 (1427912_PM_at) differential expression (kidney, 12 hr): 7.02
Cldn1 (probe set 1437932_PM_a_at) differential expression (kidney, 12 hr): 1.57
Dio3os (probe set 1435121_PM_at) differential expression (kidney, 12 hr): 1.60
Dpys (probe set 1436291_PM_a_at) differential expression (kidney, 12 hr): 1.51
Ep400 (probe set 1449610_PM_at) differential expression (kidney, 12 hr): −1.67
Fga (probe set 1424279_PM_at) differential expression (kidney, 12 hr): 1.79
Gbe1 (probe set 1420654_PM_a_at) differential expression (kidney, 12 hr): 1.51
Gdf15 (1418949_PM_at) differential expression (kidney, 12 hr): 2.01
Gpr19 (probe set 1421756_PM_a_at) differential expression (kidney, 12 hr): 1.50
Gpr135 (probe set 1441944_PM_s_at) differential expression (kidney, 12 hr): 1.59
Gpt (probe set 1426502_PM_s_at) differential expression (kidney, 12 hr): 1.51
Gsta2 (probe set 1421040_PM_a_at) differential expression (kidney, 12 hr): 1.61
Gstp1 (probe set 1449575_PM_a_at) differential expression (kidney, 12 hr): 1.54
Kif20b (probe set 1439695_PM_a_at) differential expression (kidney, 12 hr): −2.85
Klk1b21 (probe set 1451607_PM_at) differential expression (kidney, 12 hr): 1.57
Maf (probe set 1437473_PM_at) differential expression (kidney, 12 hr): 1.53
Mthfd2 (1419253_PM_at) differential expression (kidney, 12 hr): 1.65
Nek6 (probe set 1423596_PM_at) differential expression (kidney, 12 hr): 1.69
Nfia (probe set 1446742_PM_at) differential expression (kidney, 12 hr): −1.74
Orc4 (probe set 1431172_PM_at) differential expression (kidney, 12 hr): 1.50
Pigl (probe set 1440965_PM_at) differential expression (kidney, 12 hr): 1.52
Pnkd (probe set 1418746_PM_at) differential expression (kidney, 12 hr): 1.51
Rcor3 (probe set 1428343_PM_at) differential expression (kidney, 12 hr): −1.51
Reep6 (probe set 1430128_PM_a_at) differential expression (kidney, 12 hr): 1.51
Slc5a3 (probe set 1440227_PM_at) differential expression (kidney, 12 hr): −1.50
Slc6a4 (probe set 1417150_PM_at) differential expression (kidney, 12 hr): 1.58
Slc8a1 (probe set 1437675_PM_at) differential expression (kidney, 12 hr): −1.86
Slc38a3 (probe set 1418706_PM_at) differential expression (kidney, 12 hr): 1.81
Slc39a8 (probe set 1448482_PM_at) differential expression (kidney, 12 hr): −1.55
Slc48a1 (probe set 1450410_PM_a_at) differential expression (kidney, 12 hr): 1.53
Slco2a1 (probe set 1444242_PM_at) differential expression (kidney, 12 hr): 1.63
Smarca2 (probe set 1452333_PM_at) differential expression (kidney, 12 hr): −1.60
Tfrc (probe set 1422966_PM_a_at) differential expression (kidney, 12 hr): 1.51
Tmie (probe set 1443964_PM_at) differential expression (kidney, 12 hr): 1.65
Trim16 (probe set 1460629_PM_at) differential expression (kidney, 12 hr): 1.51
FC 1200003I10Rik /// 1200015M12Rik /// A130040M12Rik /// E430024C06Rik 1427932_PM_s_at (kidney, 100MMF-vs-Veh, 12 h): 1.54
FC 1200016E24Rik (1452418_PM_at) (kidney, 100MMF-vs-Veh, 12 h): 1.50
FC 1300002K09Rik 1453234_PM_at (kidney, 100MMF-vs-Veh, 12 h): 1.88
FC 1441333_PM_at (no gene symbol) (kidney, 100MMF-vs-Veh, 12 h): −2.46
FC 1441971_PM_at (no gene symbol) (kidney, 100MMF-vs-Veh, 12 h): 1.51
FC 1444920_PM_at (no gene symbol) (kidney, 100MMF-vs-Veh, 12 h): −1.56
FC 1447396_PM_at (no gene symbol) (kidney, 100MMF-vs-Veh, 12 h): −1.52
FC 1455722_PM_at (no gene symbol) (kidney, 100MMF-vs-Veh, 12 h): −1.53
FC 1458599_PM_at (no gene symbol) (kidney, 100MMF-vs-Veh, 12 h): 1.57
FC 1459091_PM_at (no gene symbol) (kidney, 100MMF-vs-Veh, 12 h): 2.38
FC 2010003K11Rik (1424626_PM_at) (kidney, 100MMF-vs-Veh, 12 h): 1.65
FC 2310043L19Rik (1440008_PM_at) (kidney, 100MMF-vs-Veh, 12 h): 1.86
FC 3110009E18Rik (1428023_PM_at) (kidney, 100MMF-vs-Veh, 12 h): 1.58
FC 4933427G17Rik 1431905_PM_s_at (kidney, 100MMF-vs-Veh, 12 h): 1.59
